What was measured:
malate dehydrogenase = settings: Bacchi et al., J. Bacteriol. 98(1), 23-28 (1969); cited from earlier work
[1] = test system: endogenous dehydrogenases; test: Emit Ethyl Alcohol Assay with inhibitor, serum samples falsely elevated by endogenous dehydrogenases; format: biochemical; settings: inhibitor in Reagent 1
Experimental: (§1) (Part No. 9K219). The assays were performed on the Cobas Mira-S analyzer (Roche Diagnostics Inc., Nutley, N.J.) according to the manufacturer's instructions using the protocol provided by Syva Company. Briefly, the Emit® Ethyl Alcohol Assay consists of two reagents, Reagent 1 and Reagent 2. Reagent 1 contains Tris buffer, stabilizers and preservatives. Reagent 2 contains alcohol dehydrogenase, nicotinamide adenine dinucleotide (NAD^+), bulking agents, stabilizers, surfactants and preservatives. Reagent 2 is shipped in dry form and is reconstituted according to the manufacturer's instructions. To perform the assay, Reagent 1 and Reagent 2 %ere added to the sample. Following mixing and incubation, the change in absorbance at 340 nm was monitored. The reaction is linear, and calibration was achieved by single point calibration using a 100 mg/dL (0.10%) calibrator, supplied by Syva Company. The calculation of results was not required. The instrument prints the quantitative result.
Results reported under the column GC refer to confirmatory results obtained using gas chromatography.
Agaric acid was dissolved in Emit® Ethyl Alcohol Reagent 1 by stirring with heat to a concentration of 25 mM. […] The solution was cooled to room temperature. The pH of the solution was measured and adjusted to the pH of the Emit® Ethyl Alcohol Reagent 1 (pH 9.0) with a small volume of 10N NaOH. […] These discrepant samples were analyzed using the Emit® Ethyl Alcohol Assay side by side with the assay containing agaric acid.

[2] = test system: α-glycerophosphate dehydrogenase; settings: Bacchi et al., J. Bacteriol. 98(1), 23-28 (1969); cited from earlier work
[3] = test system: endogenous dehydrogenases; test: Emit Ethyl Alcohol Assay with inhibitor, whole blood samples; format: biochemical; settings: whole blood ethanol samples
Experimental: as §1, with “The ability of inhibitors to prevent false positive results with samples containing endogenous dehydrogenases was determined by employing the Emit® Ethyl Alcohol Assay available from Syva Company, San Jose, Calif. (Part” for “(Part”
In the following examples, results reported under the column Current Emit® refer to results observed using the Emit® Ethyl Alcohol assay in the absence of inhibitor. […]

Row | Compound | Inhibition of malate dehydrogenase (malate dehydrogenase) | Effect on elevated (false-positive) ethanol results of the Emit Ethyl Alcohol Assay [1] | Inhibition of α-glycerophosphate dehydrogenase [2] | Accuracy of the Emit Ethyl Alcohol Assay versus current Emit product [3]
1 | CCCCCCCCCCCCCCCCC(C(=O)O)C(O)(CC(=O)O)C(=O)O (centres unmarked) [Agaric Acid, Agaric acid] | highly inhibitory | eliminated | highly inhibitory | improved accuracy
2 | CCCCCCCCCCCC(=O)O [Lauric Acid, Lauric acid] |  | eliminated |  | 
3 | CCCC/C=C\CCCCCCCC(=O)O [Myristoleic Acid, myristoleic acid] |  | eliminated |  | 
4 | CCCCCCCCCCCCOS(=O)(=O)[O-].[Na+] [SDS, sodium dodecyl sulfate] |  | eliminated |  | 
5 | CCCCCCCCCCOS(=O)(=O)[O-].[Na+] [Sodium Decyl Sulfate, sodium decyl sulfate] |  | eliminated |  | 
